Results published in patent US20050222135A1, “Active substance combination” (priority 2004, published 2005).

System: male Swiss albino mice
Settings: 30 minute period after 2 mg/kg naloxone i.v.; Morphine 5 mg/kg/day s.c. over 4 days, Cizolirtine (as citrate) 40 mg/kg/day i.p.
Protocol: Pharmacodyn. 1971, 190, pages 213-218 in male Swiss albino mice (weight 20-25 g, Harlan Iberica, S. Feliu de Codinas, Barcelona, Spain).
Withdrawal symptoms are then induced by the intravenous administration of a suitable opioid antagonist in a dose known to those skilled in the art, for example, 2 mg/kg naloxone in case of morphine, 30 minutes after the administration of the final dose of the opioid is completed.
After the administration of 2 mg/kg naloxone 30 minutes after the administration of the final dose of the active substance combination has been completed, the mice are closely watched for withdrawal symptoms, namely jumps and shakes (of the wet dog shake type), which are then counted and registered.

Which Number of jumps does the source give for `CN1CC[C@]23c4c5ccc(O)c4O[C@H]2[C@@H](O)C=C[C@H]3[C@H]1C5` [Morphine] here?
Its Number of jumps is 6.6.
